According to patent US9867794B2, “Regulation of osteopontin” (Pathologica LLC, priority 2007, dated 2018):
Where “and” joins values, the source holds several entries; their conditions need not be identical. Identical values can stand only once.

Legend:
[1] = system: Human Osteopontin (OPN); assay: Osteopontin ELISA of PBMC cell culture supernatants (CCS); type: cell-based; details: for average OPN level in CCS: fifth day
Source text: Peripheral Blood Mononuclear Cells (PBMCs) were isolated from patients diagnosed with Amyotrophic Lateral Sclerosis (ALS), Alzheimer's Disease (AD), Human Immunodeficiency Virus (HIV), Breast Cancer, AIDS Dementia, and healthy donors. The heparinised blood was mixed with equal volumes of sterile phosphate-buffered saline (Ca^++, Mg^++ free PBS) and layered over Percoll (Amersham Biosciences, Piscataway, N.J.) at 1.087 g/ml. The cells were centrifuged and the mononuclear cell layer was collected. The PBMCs were cultured in a concentration of 1×10^6 cells/ml in non-adherent conditions in polypropylene tubes containing complete media (RPMI 1640, 10% fetal bovine serum (HyClone, Logan, Utah), 1% Sodium Pyruvate) and incubated in a 5% CO2, 37° C. humidified incubator. The cells were grown in the presence of 0 μM, 0.1 μM, 1 μM, 10 μM, or 100 μM MGBG plus complete media and the cell culture supernatants (CCS) were isolated on the fifth day and frozen at −20° C. until ready to be tested. Human Osteopontin (OPN) levels were measured with the Human Osteopontin ELISA kit (R&D Systems, Inc., Minneapolis, Minn.) according to manufacturer's instructions. The CCS were tested in duplicate and the Magellan v. 4.0 software (Salzburg, Austria) was used to analyze the results. The average OPN levels (ng/ml) in 0 μM, 0.1 μM, 1 μM, 10 μM, and 100 μM MGBG were measured. The results are depicted in FIGS. 3-7 as a graph comparing diseased sample with normal sample. […] The solid lines represent diseased cells and the dashed lines represent normal cells.

[2] = system: IL1RN; assay: Quantitative RT-PCR, unsorted mononuclear cells, IL1RN; type: cell-based, human
Procedure: To evaluate the effect of MGBG on gene expression, blood samples were obtained from patients (N=18, 10 HIV-infected and 8 Healthy Controls). Mononuclear cells were isolated via Percoll gradient centrifugation. The cells were split into two tubes, one treated with 10 μM of MGBG and the other non-treated. The cells were then cultured overnight in RPMI media plus 10% fetal bovine serum at 37 C under non-adherent conditions, collected, lysed using Trizol solution, and total RNA prepared according to manufacturer's instructions (Invitrogen, Carlsbad, Calif.).
Approximately 200 ng of total RNA prepared from each sample was converted to cDNA using the First Strand cDNA Synthesis Kit for RT-PCR [AMV] kit (Roche Applied Diagnostics, Indianapolis, Ind.) according to manufacturer's instructions. Around 5 ng of cDNA sample was then used for PCR performed on a LightCycler (Roche Applied Diagnostics, Indianapolis, Ind.) using the LightCycler FastStart DNA Master SYBR Green I kit. PCR conditions are as follows: 1 cycle of denaturation at 95° C. for 10 minutes, followed by 45 cycles of 95° C. for 10 seconds, 68° C. for 10 seconds, and 72° C. for 16 seconds.
The sequences of gene-specific primers evaluated are listed below. All samples were also amplified with the human β-actin LightCycler-Primer set (Roche Diagnostics).

[3] = system: OPN protein; assay: OPN production inhibition assay in un-stimulated PBMC cultures, OPN protein; type: cell-based; details: 10 μM
Procedure: 10 μM of each drug was added to un-stimulated PBMC cultures at time=0 and cells were harvested 1,3, and 6 days later for quantitative OPN RNA and protein production analysis.

[4] = system: GPR43; assay: QRT-PCR in CD14/CD16-separated cell fractions, GPR43 RNA; type: cell-based, human; details: CD14/CD16++ macrophages, 10 μM MGBG, p=0.03
Procedure: The changes induced by MGBG in different blood cell types were determined for osteopontin and adenosine deaminase and 7 other genes. For this experiment, blood samples were obtained from 6 healthy controls (3 men/3 women from 20 to 55 years of age) and mononuclear cells were isolated via Percoll gradient centrifugation. The cells were then incubated for 3 hours in RPMI media plus 10% fetal bovine serum at 37 C. At that point MGBG was added to 10 μM to half of each sample and then the cells were incubated at 37 C for 20 more hours. The cells were then bound to magnetic beads coated with antibodies to human CD16. Bound cells (CD16 expressing) were separated from unbound cells using an AutoMACs according to manufacturer's instructions (Miltenyi, Auburn Calif.). Then CD16+ cells are released from the magnetic beads and both the CD16+ and CD16− cells are combined with magnetic beads coated with antibodies to human CD14. Antibody bound and unbound cells were then separated using the AutoMACs machine. […] Cells that neither express CD16 nor CD14 (the −/− Cells). This is mostly T lymphocytes; 2. Cells that only express CD16. This includes contaminating granulocytes not removed by Percoll centrifugation and CD16+ monocytes with very low CD14 expression; 3. […] After separation, cells of each fraction are washed with PBS and the number of viable cells determined by trypan blue exclusion. […]

[5] = 10 μM MGBG, all unsorted samples

CC(/C=N/NC(=N)N)=N\NC(=N)N [MGBG, 1,1′ [methylethanediylidene]dinitrilodiguanidine]
average OPN level in CCS ([1]; AD PBMCs (n=1), 0.1 μM MGBG): 0.477 ng/mL | average OPN level in CCS ([1]; AD PBMCs (n=1), 1 μM MGBG): 0.201 ng/mL | average OPN level in CCS ([1]; AD PBMCs (n=1), 10 μM MGBG): 0.136 ng/mL | average OPN level in CCS ([1]; AD PBMCs (n=1), 100 μM MGBG): 0 ng/mL | average CCS OPN value ([1]; AIDS Dementia PBMCs (AIRL2005-374), 10 μM MGBG): 0.8905 | average CCS OPN value ([1]; ALS PBMCs (n=2), 10 μM MGBG): 17.669 | average OPN level in CCS ([1]; HIV PBMCs (n=2), 0.1 μM MGBG): 11.833 ng/mL | average OPN level in CCS ([1]; HIV PBMCs (n=2), 1 μM MGBG): 3.481 ng/mL | average OPN level in CCS ([1]; HIV PBMCs (n=2), 10 μM MGBG): 0.447 ng/mL | average OPN level in CCS ([1]; HIV PBMCs (n=2), 100 μM MGBG): 0 ng/mL | average OPN level in CCS ([1]; breast cancer PBMCs (n=3), 0.1 μM MGBG): 20.89 ng/mL | average OPN level in CCS ([1]; breast cancer PBMCs (n=3), 1 μM MGBG): 8.87 ng/mL | average OPN level in CCS ([1]; breast cancer PBMCs (n=3), 10 μM MGBG): 2.12 ng/mL | average OPN level in CCS ([1]; breast cancer PBMCs (n=3), 100 μM MGBG): 0.84 ng/mL | average OPN level in CCS ([1]; healthy/normal PBMCs (n=3), 0.1 μM MGBG): 9.69 ng/mL | average OPN level in CCS ([1]; healthy/normal PBMCs (n=3), 1 μM MGBG): 4.85 ng/mL | average OPN level in CCS ([1]; healthy/normal PBMCs (n=3), 10 μM MGBG): 1.07 ng/mL | average OPN level in CCS ([1]; healthy/normal PBMCs (n=3), 100 μM MGBG): 0.14 ng/mL | Fold change IL1RN by QRT-PCR ([2]; 10 μM MGBG overnight, untreated vs treated, negative = fold reduction, individual samples): −10.41 fold and −3.73 fold and 1.12 fold and −1.73 fold and −1.36 fold and −14.22 fold and −1.87 fold and −1.78 fold and 8.63 fold and −2.27 fold and 1.59 fold and −8.17 fold and −19.56 fold and −1.77 fold and −4.92 fold and −2.31 fold and −8.28 fold and −17.75 fold | Fold change IL1RN, AVERAGE [2, 5]: −4.9 fold | Fold change IL1RN, MAX [2, 5]: 8.6 fold | Fold change IL1RN, MIN [2, 5]: −19.6 fold | IL1RN % >2 fold Changed ([2]; share of samples, 10 μM MGBG): 55% | samples with IL1RN down-regulated ([2]; unsorted samples): 15 out of 18 | OPN protein production [3]: Complete inhibition | GPR43 expression median signal relative to no MGBG [4]: 2.4
